{"source": "patent US7691392B2", "about": "(Kosan Biosciences Incorporated, priority 2005, dated 2010)", "key": {"[1]": {"assay": "Plasma pharmacokinetics of 17-AAG and 17-AG in the open-label dose escalating trial in MM patients", "settings": "for Cmax: iv", "protocol": "The total number of PK samples collected was approximately 110 mL of whole blood (7-8 tablespoons). If a patient experienced a potentially drug-related SAE, additional PK samples were collected. Blood was drawn from the contralateral arm to the infusion site using an indwelling catheter to avoid multiple needle sticks. […] The blood tube was inverted several times, and the tube placed in wet ice immediately pending separation of the plasma. If a catheter was used for blood collection, the fluid in the catheter was completely withdrawn prior to each sample collection and discarded. Plasma samples were kept on wet ice during collection and centrifugation. Plasma samples were split into two cryovials prior to freezing at −70° C.\nThe PK analysis was performed as follows. […] PK parameters were calculated on plasma concentration time data by non-compartmental analysis using Kinetica version 4.3 software (Innaphase, Champs sur Marne, France). AUC was calculated by the mixed log-linear rule: the linear rule was applied to the range where concentration was ascending and the log-linear rule was applied to the range where the concentration was descending. AUClast is the area from t=0 to tlast, the last sampling time. AUCextra is the extrapolated area from AUClast to infinity and AUCtotal=AUClast+AUCextra and is also named AUC0-∞ area under the concentration-time curve from time zero to infinity. The terminal rate constant λz was calculated on at least three points on the elimination curve with values greater than the lower limit of quantitation. […] Table 5 lists the areas, Cmax, and half-life for the metabolite 17-AG (mean±one standard deviation). […] There was no dose dependency for half-life, clearance or distributive volumes for these dose administrations."}, "multiple myeloma": {"test_system": "multiple myeloma", "assay": "Anti-myeloma response (Bladé criteria) in the dose escalating trial", "type": "in vivo, human", "protocol": "The method of the invention was tested in an open-label, dose escalating clinical trial.\nDisease response evaluations were performed following every two cycles of treatment (approximately every 6 weeks). The determination of anti-tumor efficacy in stable or responding patients was based on objective tumor assessments made according to a standardized myeloma response assessment system.\nAll patients with responding tumors (CR or PR) were examined to confirm the response 6 weeks after the first documentation of response."}, "[2]": {"assay": "Dose limiting toxicity and drug-related toxicities in the MM trial", "description": "Non-Hematologic toxicities comprise: (1) any≧Grade 3 non-hematologic toxicity (except Grade 3 injection site reaction, alopecia, anorexia, fatigue), (2) nausea, diarrhea and/or vomiting of Grade≧3 despite the use of maximal medical intervention and/or prophylaxis, and/or (3) treatment delay of more than 4 weeks due to prolonged recovery from a drug-related toxicity.\nThe doses and schedule of study drug were as follows. […] Subsequent patient cohorts were enrolled per the escalation scheme outlined in the table below, as supported by observed toxicities. […] If one of three evaluable patients experienced a DLT, then the cohort was increased to six evaluable patients. If two or more of six evaluable patients in a cohort experienced a DLT, then the MTD was deemed to have been exceeded; all further accrual was at the previous dose level. If no more than one of the six patients experienced a DLT, then the next dose level was evaluated."}, "cell kill": {"test_system": "cell kill", "settings": "in vitro and in vivo xenograft models; cited from earlier work"}, "advanced solid tumors": {"test_system": "advanced solid tumors", "settings": "patients with advanced solid tumors; cited from earlier work"}, "metastatic melanoma": {"test_system": "metastatic melanoma", "settings": "cited from earlier work"}, "Raf-1": {"test_system": "Raf-1", "settings": "at 24 hours; cited from earlier work"}, "[3]": {"test_system": "diffuse GFP positive MM lesions", "settings": "survival analysis; cited from earlier work"}, "[4]": {"test_system": "SKBr3 breast cancer cells", "settings": "exposure to 17-AAG; cited from earlier work"}, "[5]": {"test_system": "lung cancer cells with wild-type Rb", "settings": "exposure to 17-AAG; cited from earlier work"}, "[6]": {"settings": "patients treated at 56 mg/m^2 17-AAG; cited from earlier work"}}, "note": "Several values for one entry are separate records, joined by “and”; a condition that tells them apart may be missing. Identical values can stand only once. Entries after “also recorded” stand apart in the source; their conditions may differ. Like-named read-outs stand apart in the source and are kept apart here."}
{"compound": "C=CCNC1=C2C[C@@H](C)C[C@H](OC)[C@H](O)[C@@H](C)/C=C(\\C)[C@H](OC(N)=O)[C@@H](OC)/C=C\\C=C(/C)C(=O)NC(=CC1=O)C2=O", "note": "[17-AAG, 17-Allylamino-17-demethoxygeldanamycin]", "values": [{"measurement": "clearance CL for 17-AAG, individual patients", "setting": "[1]; 220 mg/m^2, the two patients with metabolite in trough levels on Day 11", "result": "16.8 L/h/m^2 and 17.3 L/h/m^2"}, {"measurement": "clearance CL for 17-AAG, average for the cohort", "setting": "[1]; 220 mg/m^2 cohort", "result": "25.3±9.6", "unit": "L/h/m^2"}, {"measurement": "AUCtotal", "setting": "[1]; 17-AAG 150 mg/m^2, mean ± SD", "result": "5,592 ± 757 ng/mL * h"}, {"measurement": "Terminal T1/2", "setting": "[1]; 17-AAG 150 mg/m^2, mean ± SD", "result": "2.19 ± 0.58", "unit": "h"}, {"measurement": "Vss", "setting": "[1]; 17-AAG 150 mg/m^2, mean ± SD", "result": "170.9 ± 41.7", "unit": "L"}, {"measurement": "clearance", "setting": "[1]; 17-AAG 150 mg/m^2, mean ± SD", "result": "915.3 ± 113", "unit": "mL/min"}, {"measurement": "AUCtotal", "setting": "[1]; 17-AAG 220 mg/m^2, mean ± SD", "result": "9,460 ± 3,788 ng/mL * h"}, {"measurement": "Vss", "setting": "[1]; 17-AAG 220 mg/m^2, mean ± SD", "result": "139.1 ± 45.7", "unit": "L"}, {"measurement": "Vz", "setting": "[1]; 17-AAG 220 mg/m^2, mean ± SD", "result": "171.0 ± 67.1", "unit": "L"}, {"measurement": "AUCtotal", "setting": "[1]; 17-AAG 275 mg/m^2, mean ± SD", "result": "13,803 ± 1,540 ng/mL * h"}, {"measurement": "Vz", "setting": "[1]; 17-AAG 275 mg/m^2, mean ± SD", "result": "159.6 ± 54.4", "unit": "L"}, {"measurement": "AUCtotal", "setting": "[1]; 17-AAG 340 mg/m^2, mean ± SD", "result": "18,997 ± 4,195 ng/mL * h"}, {"measurement": "Vz", "setting": "[1]; 17-AAG 340 mg/m^2, mean ± SD", "result": "174.0 ± 71.2", "unit": "L"}, {"measurement": "change of AUCtotal between Day 1 and Day 11", "setting": "[1]; 17 patients, first vs fourth infusion", "result": "no increase in AUCtotal between Day 1 and Day 11"}, {"measurement": "dose proportionality of Cmax", "setting": "[1]; 150-340 mg/m^2 17-AAG", "result": "increased in an approximately dose proportional manner"}, {"measurement": "half-life", "setting": "[1]; human, in vivo", "result": "2.19 to 3.68", "unit": "h"}, {"measurement": "AUC(0-t)", "setting": "[1]; human, in vivo, 150 mg/m2", "result": 5300, "unit": "ng·h/mL"}, {"measurement": "Vd", "setting": "[1]; human, in vivo, 150 mg/m2, Vz, 17-AAG 150 mg/m^2, mean ± SD", "result": "170 ± 30.3", "unit": "L"}, {"measurement": "AUC(0-t)", "setting": "[1]; human, in vivo, 220 mg/m2", "result": 9160, "unit": "ng·h/mL"}, {"measurement": "half-life", "setting": "[1]; human, in vivo, 220 mg/m2", "result": "2.68 ± 0.99", "unit": "h"}, {"measurement": "clearance", "setting": "[1]; human, in vivo, 220 mg/m2, Clearance, 17-AAG 220 mg/m^2, mean ± SD", "result": 780, "unit": "mL/min"}, {"measurement": "AUC(0-t)", "setting": "[1]; human, in vivo, 275 mg/m2", "result": 13400, "unit": "ng·h/mL"}, {"measurement": "half-life", "setting": "[1]; human, in vivo, 275 mg/m2", "result": "2.96 ± 1.34", "unit": "h"}, {"measurement": "clearance", "setting": "[1]; human, in vivo, 275 mg/m2, Clearance, 17-AAG 275 mg/m^2, mean ± SD", "result": 661, "unit": "mL/min"}, {"measurement": "Vd", "setting": "[1]; human, in vivo, 275 mg/m2, Vss, 17-AAG 275 mg/m^2, mean ± SD", "result": "123 ± 23.4", "unit": "L"}, {"measurement": "AUC(0-t)", "setting": "[1]; human, in vivo, 340 mg/m2", "result": 18700, "unit": "ng·h/mL"}, {"measurement": "half-life", "setting": "[1]; human, in vivo, 340 mg/m2", "result": "3.3 ± 0.83", "unit": "h"}, {"measurement": "clearance", "setting": "[1]; human, in vivo, 340 mg/m2, Clearance, 17-AAG 340 mg/m^2, mean ± SD", "result": 595, "unit": "mL/min"}, {"measurement": "Vd", "setting": "[1]; human, in vivo, 340 mg/m2, Vss, 17-AAG 340 mg/m^2, mean ± SD", "result": "101 ± 27.7", "unit": "L"}, {"measurement": "clearance", "setting": "[1]; human, in vivo, CL, present study, overall", "result": 792, "unit": "mL/min"}, {"measurement": "clearance", "setting": "[1]; human, in vivo, Total systemic clearance, range of cohort means, across dose administrations", "result": "636 to 915", "unit": "mL/min"}, {"measurement": "Vd", "setting": "[1]; human, in vivo, distributive volume (Vss), range of cohort means, across dose administrations", "result": "123 to 171", "unit": "L"}, {"measurement": "Vd", "setting": "[1]; human, in vivo, distributive volume (Vz), range of cohort means, across dose administrations", "result": "160 to 204", "unit": "L"}, {"measurement": "Cmax", "setting": "[1]; human, in vivo, 150 mg/m2", "result": 2400, "unit": "ng/mL"}, {"measurement": "Cmax", "setting": "[1]; human, in vivo, 220 mg/m2", "result": 4670, "unit": "ng/mL"}, {"measurement": "Cmax", "setting": "[1]; human, in vivo, 275 mg/m2", "result": 6820, "unit": "ng/mL"}, {"measurement": "Cmax", "setting": "[1]; human, in vivo, 340 mg/m2", "result": 9360, "unit": "ng/mL"}, {"measurement": "Vss", "setting": "[1]; present study, overall", "result": "144.45 ± 43.51", "unit": "L"}, {"measurement": "disease response", "setting": "multiple myeloma; 150 mg/m^2 twice weekly 2 of 3 weeks, four evaluable patients", "result": "One showed a MR; also recorded: one patient had a MR, two had stable disease and one had progressive disease"}, {"measurement": "disease response", "setting": "multiple myeloma; 220 mg/m^2 twice weekly 2 of 3 weeks, seven evaluable patients", "result": "four are stable disease and three are progressive disease; also recorded: four patients had stable disease and three had progressive disease"}, {"measurement": "disease response", "setting": "multiple myeloma; 275 mg/m^2 twice weekly 2 of 3 weeks, three evaluable patients", "result": "all three had stable disease"}, {"measurement": "disease response", "setting": "multiple myeloma; 340 mg/m^2 twice weekly 2 of 3 weeks, five evaluable patients", "result": "two patients had stable disease and three had progressive disease"}, {"measurement": "percent of patients with stable disease", "setting": "multiple myeloma; 19 evaluable patients, after three or more cycles", "result": 58, "unit": "%"}, {"measurement": "percent of patients with response (MR)", "setting": "multiple myeloma; 19 evaluable patients, all dose levels", "result": 5, "unit": "%"}, {"measurement": "reduction of urine M-protein", "setting": "multiple myeloma; one patient considered a PR, withdrawn for skin rash and wheezing", "result": 90, "unit": "%"}, {"measurement": "reduction of urine M-protein", "setting": "multiple myeloma; one patient, 150 mg/m^2, after two cycles (MR), FIG. 12", "result": 41, "unit": "%"}, {"measurement": "reduction of serum M-spike", "setting": "multiple myeloma; one patient, 275 mg/m^2, after eight cycles (stable disease), FIG. 13", "result": 11, "unit": "%"}, {"measurement": "DLT", "setting": "[2]; 150 mg/m^2, four patients", "result": "DLT was not observed in any of these four patients"}, {"measurement": "DLT", "setting": "[2]; 220 mg/m^2, seven evaluable patients", "result": "DLT was observed in one patient; the DLT was liver infiltration of plasma cells with a Grade 3 elevated ALT"}, {"measurement": "DLT", "setting": "[2]; 275 mg/m^2 twice weekly two of three weeks, three patients", "result": "DLT was not observed in any of these three patients; also recorded: without reaching dose limiting toxicity"}, {"measurement": "drug-related toxicities other than the single Grade 3 elevated ALT", "setting": "[2]; all dose levels", "result": "Grade 1-2 elevated transaminases, nausea, fatigue, diarrhea, anemia, myalgias and rash"}, {"measurement": "concentrations needed to achieve cell kill", "setting": "cell kill", "result": "10 to 500", "unit": "nM"}, {"measurement": "objective tumor responses", "setting": "advanced solid tumors", "result": "No objective tumor responses have been observed"}, {"measurement": "complete or partial responses", "setting": "metastatic melanoma; once weekly schedule", "result": "No complete or partial responses were recorded"}, {"measurement": "stable disease", "setting": "metastatic melanoma; patients treated at 320-450 mg/m^2", "result": "two showed radiologically documented long term stable disease"}, {"measurement": "patients with Raf-1 depletion in tumor biopsies", "setting": "Raf-1", "result": "4 out of 6"}, {"measurement": "median overall survival", "setting": "[3]", "result": "significantly prolonged median overall survival"}, {"measurement": "effect on client proteins", "setting": "[4]", "result": "depletion of erbB2 and destabilization of Raf-1 and mutant p53"}, {"measurement": "effect on client proteins", "setting": "[5]", "result": "degradation of cdk4, cdk6, and cyclin E"}, {"measurement": "Vz", "setting": "[6]", "result": 93, "unit": "L/m^2"}, {"measurement": "clearance", "setting": "[6]", "result": 19.9, "unit": "L/h/m^2"}]}
